Legend:
Assay type in all cases: cell-based, pigs
Islets [1] = assay: Functionality of post-cryopreservation islets (stimulation index, insulin secretion high/low glucose); conditions: ratio of insulin secretion high vs low glucose medium
Method: Islets were isolated from over two years old pigs (n=3). After overnight culture, a known number of islets were incubated for 2 hours in culture medium supplemented with polyphenol (epigallocatechin-gallate (EGCg) with more than 98% purity) at concentrations of 0 (control), 30, 60, 120 ug/ml. Islets were suspended in the same volume of cryopreservation solution containing 12% hydroxyethyl starch (HES) and 10% dimethyl sulfoxide (DMSO) with 8% […] (FBS), and then cryopreserved using a program freezing system^3. After 4 weeks storage in liquid nitrogen, islets were rapidly thawed in a hot water bath. We assessed the results on recovery rate (islet yield after thawing/islet yield before freezing) following cryopreservation and after 48 hours of postcryopreservation tissue culture, viability and functionality. […] The stimulation index represents a ratio of insulin secretion between high-concentration glucose culture medium and low-concentration glucose culture medium.

Islets [2] = assay: Viability of post-cryopreservation islets assessed using AO/PI; conditions: for viability assessed using AO/PI: post-cryopreservation
Method: (§1) Islets were isolated from over two years old pigs (n=3). After overnight culture, a known number of islets were incubated for 2 hours in culture medium supplemented with polyphenol (epigallocatechin-gallate (EGCg) with more than 98% purity) at concentrations of 0 (control), 30, 60, 120 ug/ml. Islets were suspended in the same volume of cryopreservation solution containing 12% hydroxyethyl starch (HES) and 10% dimethyl sulfoxide (DMSO) with 8% […] (FBS), and then cryopreserved using a program freezing system^3. After 4 weeks storage in liquid nitrogen, islets were rapidly thawed in a hot water bath. We assessed the results on recovery rate (islet yield after thawing/islet yield before freezing) following cryopreservation and after 48 hours of postcryopreservation tissue culture, viability and functionality.

Islets [3] = assay: Islet recovery rate after cryopreservation with polyphenol pre-incubation; conditions: for islet recovery rate following cryopreservation: 2 hours incubation before freezing, 4 weeks in liquid nitrogen; for islet recovery rate after 48 hours of postcryopreservation tissue culture: 48 hours culture after thawing
Method: as §1

`O=C(O[C@@H]1Cc2c(O)cc(O)cc2O[C@@H]1c1cc(O)c(O)c(O)c1)c1cc(O)c(O)c(O)c1` [polyphenol, epigallocatechin-gallate] was tested, and the “functionality indicated by stimulation index” value (Islets [1]; 30 ug/ml polyphenol) was 1.4±0.2, the “functionality indicated by stimulation index” value (Islets [1]; 60 ug/ml polyphenol) was 1.4±0.3 and the “functionality indicated by stimulation index” value (Islets [1]; 120 ug/ml polyphenol) was 0.9±0.3. The “viability assessed using AO/PI” value (Islets [2]; 30 ug/ml polyphenol) was 83.1±1.2, the “viability assessed using AO/PI” value (Islets [2]; 60 ug/ml polyphenol) was 85.9±2.5 and the “viability assessed using AO/PI” value (Islets [2]; 120 ug/ml polyphenol) was 84.4±1.0. For the same molecule, the “viability following cryopreservation, compared with control” value (Islets [2]; polyphenol group vs control group, p<0.01) was “significantly higher than the control group”, the “islet recovery rate following cryopreservation” value (Islets [3]; 30 ug/ml polyphenol) was 66.5±3.3% and the “islet recovery rate after 48 hours of postcryopreservation tissue culture” value (shortened to “islet recovery rate after 48 hours”) (Islets [3]; 30 ug/ml polyphenol) was 45.3±0.3%. The “islet recovery rate following cryopreservation” value (Islets [3]; 60 ug/ml polyphenol) was 76.9±5.2%, the “islet recovery rate after 48 hours” value (Islets [3]; 60 ug/ml polyphenol) was 68.0±3.0% and the “islet recovery rate following cryopreservation” value (Islets [3]; 120 ug/ml polyphenol) was 74.5±2.9%. The “islet recovery rate after 48 hours” value (Islets [3]; 120 ug/ml polyphenol) was 54.6±3.3%.

— patent publication US20070259327A1, “Cryopreservation medium and cryopreservation method for tissues and cells” (BioVerde. Inc., priority 2006, published 2007)
